Measurements: patent US12187723B2 (BRISTOL-MYERS SQUIBB COMPANY, priority 2019, dated 2025)

Assays:
[1] = target: T1, human TLR8 (Homo sapiens, UniProt Q9NR97); assay: TLR8 inhibition reporter assay (HEK-Blue SEAP); assay type: cell-based; conditions: HEK-Blue cells overexpressing human TLR8, R848 15.9 μM, 22 hour incubation
T1 construct: host or cells: HEK-Blue cells
T1 sequence (Q9NR97 27-1041): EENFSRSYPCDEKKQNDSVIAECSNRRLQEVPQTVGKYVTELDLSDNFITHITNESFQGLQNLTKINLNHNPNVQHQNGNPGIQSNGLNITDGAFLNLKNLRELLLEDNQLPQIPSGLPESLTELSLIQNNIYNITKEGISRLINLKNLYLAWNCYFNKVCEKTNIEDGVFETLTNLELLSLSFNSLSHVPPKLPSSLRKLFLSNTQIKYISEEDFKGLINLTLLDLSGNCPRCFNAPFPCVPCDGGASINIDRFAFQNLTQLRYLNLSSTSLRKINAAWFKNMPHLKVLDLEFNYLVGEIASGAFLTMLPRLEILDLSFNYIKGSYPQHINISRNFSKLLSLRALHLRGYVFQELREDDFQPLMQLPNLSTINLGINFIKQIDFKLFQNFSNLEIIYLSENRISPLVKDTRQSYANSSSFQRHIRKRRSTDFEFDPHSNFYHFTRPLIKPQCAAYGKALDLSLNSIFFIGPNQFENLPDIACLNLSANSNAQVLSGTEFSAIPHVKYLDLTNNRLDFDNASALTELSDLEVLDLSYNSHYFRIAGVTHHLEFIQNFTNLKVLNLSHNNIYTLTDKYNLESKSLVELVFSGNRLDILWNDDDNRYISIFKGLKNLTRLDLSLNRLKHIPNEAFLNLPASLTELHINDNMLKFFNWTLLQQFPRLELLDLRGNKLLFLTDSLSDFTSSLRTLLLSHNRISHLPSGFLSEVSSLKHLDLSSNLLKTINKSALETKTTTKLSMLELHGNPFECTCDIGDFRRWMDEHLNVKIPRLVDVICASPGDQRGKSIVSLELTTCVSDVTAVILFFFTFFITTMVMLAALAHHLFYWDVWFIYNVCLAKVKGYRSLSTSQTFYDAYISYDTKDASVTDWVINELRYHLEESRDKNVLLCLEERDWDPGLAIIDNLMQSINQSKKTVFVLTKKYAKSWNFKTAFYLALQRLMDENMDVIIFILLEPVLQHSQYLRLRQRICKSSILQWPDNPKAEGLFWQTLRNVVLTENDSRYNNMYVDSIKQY
Method in brief: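 Agonists used: gardiquimod 7.5 μM (TLR7), R848 15.9 μM (TLR8), ODN2006 5 nM (TLR9), added after 30 min room-temperature compound pre-treatment (0.05 nM–50 μM) of receptor-overexpressing HEK-Blue cells. SEAP reporter (NF-κB/AP-1 driven) read after 22 h at 37 °C; inhibition scaled between agonist+DMSO and reference-inhibitor wells.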

[2] = target: T2, human TLR7 (Homo sapiens, UniProt Q9NYK1); assay: TLR7 inhibition reporter assay (HEK-Blue SEAP); assay type: cell-based; conditions: HEK-Blue cells overexpressing human TLR7, gardiquimod 7.5 μM, 22 hour incubation
T2 construct: host or cells: HEK-Blue cells
T2 sequence (Q9NYK1 27-1049): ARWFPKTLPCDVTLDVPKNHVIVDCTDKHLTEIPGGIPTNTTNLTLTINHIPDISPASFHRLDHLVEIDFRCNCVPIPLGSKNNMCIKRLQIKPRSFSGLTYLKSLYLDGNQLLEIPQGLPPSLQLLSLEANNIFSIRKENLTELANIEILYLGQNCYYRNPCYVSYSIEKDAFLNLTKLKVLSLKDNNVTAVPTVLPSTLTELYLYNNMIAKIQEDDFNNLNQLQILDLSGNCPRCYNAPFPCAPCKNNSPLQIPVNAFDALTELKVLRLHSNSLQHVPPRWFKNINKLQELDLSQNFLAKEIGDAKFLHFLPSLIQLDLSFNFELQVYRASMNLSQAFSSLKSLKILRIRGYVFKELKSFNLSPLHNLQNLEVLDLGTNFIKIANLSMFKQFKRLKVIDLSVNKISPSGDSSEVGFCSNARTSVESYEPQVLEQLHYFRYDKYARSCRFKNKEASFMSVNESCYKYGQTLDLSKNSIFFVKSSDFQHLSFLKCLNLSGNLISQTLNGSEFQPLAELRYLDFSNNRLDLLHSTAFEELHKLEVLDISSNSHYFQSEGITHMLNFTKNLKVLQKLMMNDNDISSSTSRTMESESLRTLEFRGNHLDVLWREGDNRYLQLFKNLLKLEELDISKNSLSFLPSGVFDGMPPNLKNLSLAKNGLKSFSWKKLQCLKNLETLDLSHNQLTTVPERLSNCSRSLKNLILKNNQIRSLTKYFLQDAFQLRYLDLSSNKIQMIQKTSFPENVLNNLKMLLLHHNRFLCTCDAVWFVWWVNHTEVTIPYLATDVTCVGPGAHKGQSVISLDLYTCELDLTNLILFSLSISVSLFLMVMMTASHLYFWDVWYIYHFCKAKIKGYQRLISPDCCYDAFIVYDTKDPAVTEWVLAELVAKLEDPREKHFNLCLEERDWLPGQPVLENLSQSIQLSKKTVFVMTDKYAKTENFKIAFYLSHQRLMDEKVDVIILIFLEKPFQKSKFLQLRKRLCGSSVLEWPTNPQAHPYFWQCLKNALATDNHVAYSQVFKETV
Method in brief: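 HEK-Blue reporter cells (15,000/well TLR7, 20,000 TLR8) exposed to compound over 0.05 nM–50 μM, agonist-stimulated (R848 for TLR8, gardiquimod for TLR7), 22 h at 37 °C, 5% CO2. SEAP read with HEK-Blue Detection; % inhibition relative to agonist-plus-DMSO and known-inhibitor controls.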

IC50 [1]: 81.5 nM | IC50 [2]: 119 nM
Compound: COc1cc(-c2cc3[nH]c(=O)n(C4CCC(N5CCNC(=O)C5)CC4)c3cc2C(C)C)cn2ncnc12 (centres unmarked) [Example 243, 6-isopropyl-5-(8-methoxy-[1,2,4]triazolo[1,5-a]pyridin-6-yl)-1-(4-(3-oxopiperazin-1-yl)cyclohexyl)-1,3-dihydro-2H-benzo[d]imidazol-2-one]
